Test results taken from the supplement of paper PMC11061612.

Key:
[1] = tested on: RC-K8 (B-Cell Non-Hodgkin's Lymphoma); experiment: Bliss excess, mean over the matrix (fraction); higher = more synergy
Summary of the method: (§1)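 Cell lines in DMEM/F12 or RPMI with 10% FBS were plated in 1536-well plates, held 24 hours at 37°C, 5% CO2, then given two-drug dose matrices for 72 hours (DMSO typically 0.2%). Viability was read by CellTiter-Glo 2.0 luminescence and scaled as inhibition from 0 (vehicle wells) to 1 (blank wells). Combination Emax is the second-highest inhibition in the matrix; Bliss excess is observed combination effect minus expected EA + EB − EA·EB, EA and EB being single-agent effects.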

[2] = tested on: NCI-H2085 (Non-Small Cell Lung Carcinoma); experiment: as above
Summary of the method: as §1

[3] = tested on: CCRF-CEM (T-Lymphoblastic Leukemia); experiment: as above
Summary of the method: as §1

[4] = tested on: RO82-W-1 (Thyroid Gland Carcinoma); experiment: as above
Summary of the method: as §1

[5] = tested on: HOS (Osteosarcoma); experiment: as above
Summary of the method: as §1

[6] = tested on: NOS-1 (Osteosarcoma); experiment: as above
Summary of the method: as §1

[7] = tested on: NCI-H2085 (Non-Small Cell Lung Carcinoma); experiment: combination Emax (second highest fraction inhibited in the dose matrix, 72 h); higher = more inhibition; extreme values may be limits of the assay
Summary of the method: as §1

[8] = tested on: 42-MG-BA (Glioblastoma); experiment: as above
Summary of the method: as §1

[9] = tested on: HuP-T4 (Pancreatic Carcinoma); experiment: as above
Summary of the method: as §1

[10] = tested on: LU-135 (Small Cell Lung Carcinoma); experiment: as above
Summary of the method: as §1

[11] = tested on: LNCaP-Clone-FGC (Prostate Carcinoma); experiment: as above
Summary of the method: as §1

[12] = tested on: HOS (Osteosarcoma); experiment: as above
Summary of the method: as §1

[13] = tested on: KELLY (Neuroblastoma); experiment: as above
Summary of the method: as §1

[14] = tested on: ME-1 (Acute Myeloid Leukemia); experiment: as above
Summary of the method: as §1

[15] = tested on: AGS (Gastric Carcinoma); experiment: as above
Summary of the method: as §1

[16] = tested on: OVCA420 (Ovarian Carcinoma); experiment: as above
Summary of the method: as §1

[17] = tested on: LB831-BLC (Bladder Carcinoma); experiment: as above
Summary of the method: as §1

[18] = tested on: HO-1-N-1 (Oral Cavity Carcinoma); experiment: as above
Summary of the method: as §1

[19] = tested on: HT-1376 (Bladder Carcinoma); experiment: as above
Summary of the method: as §1

[20] = tested on: KYSE-520 (Esophageal Squamous Cell Carcinoma); experiment: as above
Summary of the method: as §1
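For Bliss excess, mean over the matrix in this document: after 72 h of two-drug dosing.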

Structure (SMILES): Cc1c2c(nn1C)CSCc1cc(n(C)n1)CSc1cc(c3ccccc3c1)OCCCc1c(C(=O)O)n(C)c3c-2c(Cl)ccc13 [AZD5991] + CCN(CCO)CCCOc1ccc2c(Nc3cc(CC(=O)Nc4cccc(F)c4)[nH]n3)ncnc2c1 [AZD2811] (first compound max 1 µM, 7x7, partner max 1 µM)
- Bliss excess [1]: 0.09
- Bliss excess [2]: -0.0575
- Bliss excess [3]: -0.0343
- Bliss excess [4]: -0.0642
- Bliss excess [5]: 0.007
- Bliss excess [6]: -0.0222
- combination Emax [7]: 0.863
- combination Emax [8]: 1
- combination Emax [9]: 0.624
- combination Emax [10]: 0.906
- combination Emax [11]: 0.33
- combination Emax [12]: 0.238
- combination Emax [13]: 0.896
- combination Emax [14]: 0.733
- combination Emax [15]: 0.51
- combination Emax [16]: 0.235
- combination Emax [17]: 0.444
- combination Emax [18]: 0.993
- combination Emax [19]: 0.243
- combination Emax [20]: 0.283

Structure (SMILES): CN(CCO)CC[C@H](CSc1ccccc1)Nc1ccc(S(=O)(=O)NC(=O)c2ccc(N3CCC([C@@H](O)c4ccccc4-c4ccc(Cl)cc4)CC3)cc2)cc1S(=O)(=O)C(F)(F)F [AZD4320] + C[C@@H]1COCCN1C2=NC(=NC(=C2)C3(CC3)[S@](=N)(=O)C)C4=C5C=CNC5=NC=C4 [AZD6738] (first compound max 1 µM, 7x7, partner max 10 µM)
- Bliss excess [1]: -0.011
- Bliss excess [2]: -0.0912
- Bliss excess [3]: 0.0394
- Bliss excess [4]: -0.0025
- Bliss excess [5]: 0.0111
- Bliss excess [6]: 0.038
- combination Emax [7]: 0.502
- combination Emax [8]: 0.675
- combination Emax [9]: 0.621
- combination Emax [10]: 1
- combination Emax [11]: 0.782
- combination Emax [12]: 0.722
- combination Emax [13]: 0.982
- combination Emax [14]: 1
- combination Emax [15]: 0.993
- combination Emax [16]: 0.516
- combination Emax [17]: 0.381
- combination Emax [18]: 0.937
- combination Emax [19]: 0.718
- combination Emax [20]: 0.672

Structure (SMILES): CC1(C)CCC(CN2CCN(c3ccc(C(=O)NS(=O)(=O)c4ccc(NCC5CCOCC5)c([N+](=O)[O-])c4)c(Oc4cnc5[nH]ccc5c4)c3)CC2)=C(c2ccc(Cl)cc2)C1 [Venetoclax] + C[C@@H]1COCCN1C2=NC(=NC(=C2)C3(CC3)[S@](=N)(=O)C)C4=C5C=CNC5=NC=C4 [AZD6738] (first compound max 1 µM, 7x7, partner max 10 µM)
- Bliss excess [1]: -0.0294
- Bliss excess [2]: 0.0309
- Bliss excess [3]: 0.0224
- Bliss excess [4]: -0.0504
- Bliss excess [5]: -0.0099
- Bliss excess [6]: -0.057
- combination Emax [7]: 0.534
- combination Emax [8]: 0.678
- combination Emax [9]: 0.394
- combination Emax [10]: 0.761
- combination Emax [11]: 0.684
- combination Emax [12]: 0.642
- combination Emax [13]: 0.998
- combination Emax [14]: 1
- combination Emax [15]: 0.72
- combination Emax [16]: 0.493
- combination Emax [17]: 0.466
- combination Emax [18]: 0.871
- combination Emax [19]: 0.432
- combination Emax [20]: 0.575

Structure (SMILES): CC(=O)c1c(C)c2cnc(Nc3ccc(N4CCNCC4)cn3)nc2n(C2CCCC2)c1=O [Palbociclib] + Cc1c2c(nn1C)CSCc1cc(n(C)n1)CSc1cc(c3ccccc3c1)OCCCc1c(C(=O)O)n(C)c3c-2c(Cl)ccc13 [AZD5991] (first compound max 10 µM, 7x7, partner max 1 µM)
- Bliss excess [1]: -0.0555
- Bliss excess [2]: -0.0374
- Bliss excess [3]: -0.014
- Bliss excess [4]: -0.0283
- Bliss excess [5]: -0.0182
- Bliss excess [6]: -0.0006
- combination Emax [7]: 0.167
- combination Emax [8]: 0.391
- combination Emax [9]: 0.245
- combination Emax [10]: 0.388
- combination Emax [11]: 0.5
- combination Emax [12]: 0.404
- combination Emax [13]: 0.897
- combination Emax [14]: 0.693
- combination Emax [15]: 0.445
- combination Emax [16]: 0.265
- combination Emax [17]: 0.275
- combination Emax [18]: 0.597
- combination Emax [19]: 0.216
- combination Emax [20]: 0.462

Structure (SMILES): CC1(C)CCC(CN2CCN(c3ccc(C(=O)NS(=O)(=O)c4ccc(NCC5CCOCC5)c([N+](=O)[O-])c4)c(Oc4cnc5[nH]ccc5c4)c3)CC2)=C(c2ccc(Cl)cc2)C1 [Venetoclax] + C1CN(CCC1(C(=O)N[C@@H](CCO)C2=CC=C(C=C2)Cl)N)C3=NC=NC4=C3C=CN4 [Capivasertib] (first compound max 1 µM, 7x7, partner max 3 µM)
- Bliss excess [1]: -0.0173
- Bliss excess [2]: -0.0569
- Bliss excess [3]: 0.0042
- Bliss excess [4]: -0.0312
- Bliss excess [5]: -0.0243
- Bliss excess [6]: -0.0157
- combination Emax [7]: 0.329
- combination Emax [8]: 0.518
- combination Emax [9]: 0.0995
- combination Emax [10]: 0.317
- combination Emax [11]: 0.916
- combination Emax [12]: 0.281
- combination Emax [13]: 0.998
- combination Emax [14]: 1
- combination Emax [15]: 0.316
- combination Emax [16]: 0.146
- combination Emax [17]: 0.334
- combination Emax [18]: 0.258
- combination Emax [19]: 0.11
- combination Emax [20]: 0.467

Structure (SMILES): CC1(C)CCC(CN2CCN(c3ccc(C(=O)NS(=O)(=O)c4ccc(NCC5CCOCC5)c([N+](=O)[O-])c4)c(Oc4cnc5[nH]ccc5c4)c3)CC2)=C(c2ccc(Cl)cc2)C1 [Venetoclax] + COc1cc(Nc2ncc3c(n2)-c2ccc(Cl)cc2C(c2c(F)cccc2OC)=NC3)ccc1C(=O)O [Alisertib] (first compound max 1 µM, 7x7, partner max 10 µM)
- Bliss excess [1]: 0.024
- Bliss excess [2]: 0.0491
- Bliss excess [3]: -0.0493
- Bliss excess [4]: -0.0658
- Bliss excess [5]: -0.0132
- Bliss excess [6]: -0.0231
- combination Emax [7]: 0.597
- combination Emax [8]: 0.59
- combination Emax [9]: 0.355
- combination Emax [10]: 0.797
- combination Emax [11]: 0.298
- combination Emax [12]: 0.248
- combination Emax [13]: 0.998
- combination Emax [14]: 1
- combination Emax [15]: 0.557
- combination Emax [16]: 0.326
- combination Emax [17]: 0.456
- combination Emax [18]: 0.876
- combination Emax [19]: 0.246
- combination Emax [20]: 0.493
